# Read-outs that look alike come from different tables or passages of the source. Marks after values point to notes of the source that are not given here.
# Columns and labels:
# Feline parvovirus = conditions: published results against Feline parvovirus, cited from earlier work
# E. coli ATCC 11229 = assay: Food-preparation hard surface sanitizing comparison, E. coli (Table 12); format: cell-based; conditions: actives conc. 300 ppm; 30 second exposure
# From the text: (§1) Table 12 compares formulas of the present invention with prior art examples of food-preparation hard surface sanitizing. […] [table]
# E. coli = assay: Log reduction of E. coli by liquid compositions, 30 second contact (Tables 4, 5); format: cell-based; conditions: for Log Reduction: E. coli; for E. Coli Log Reduction: single component alone, pH 3, 30 second contact time, vs untreated control
# From the text: Results recorded include the pH of the solution, the color of the solution and the log reduction in microbe. In Table 4, E. coli is used in all examples, while a variety of organisms (gram positive and gram negative bacteria, a yeast, a mold) are used in Table 5. [table] [table]
# Z. bailii = assay: Log reduction of Z. bailii by liquid compositions, 30 second contact (Table 5); format: cell-based
# P. expansum = assay: Log reduction of P. expansum by liquid compositions, 15 minute contact (Table 5); format: cell-based
# From the text: (§2) Results recorded include the pH of the solution, the color of the solution and the log reduction in microbe. In Table 4, E. coli is used in all examples, while a variety of organisms (gram positive and gram negative bacteria, a yeast, a mold) are used in Table 5.
# S. javiana = assay: Microbial reduction on Roma tomato surfaces, five minute submersion (Table 6); conditions: tomatoes submerged five minutes at 72° F., versus untreated control
# Protocol: Specifically, comparison is made to the use of either sodium hypochlorite (bleach), hydrogen peroxide or peracetic acid.
# Testing was performed on commercial Roma tomato surfaces using the test organism Salmonella javinia. For the pathogenic organisms, a 1:10 dilution of a 10^7 CFU/ml (colony forming units per ml) test system suspension was prepared. Whole tomatoes were placed into a plastic bag, and each bag was inoculated with a 10-mil. test system suspension, resulting in an inoculum level of […]. Bags are gently shaken for even distribution of the test system for five minutes. The produce types are then stored overnight at 4° C. Untreated controls were also prepared. Two-liter volumes of the test solutions were prepared in 4-liter beakers. Solutions were prepared in laboratory tap water to simulate industry conditions. The tomatoes were then exposed to the test solution by submersion for five minutes at 72° F. (about 22° C.). At the end of that time, the tomatoes were removed from the solution and thoroughly rinsed under fresh-running tap water. Fifty grams of the home produce (tomato), plus 100 ml buffered dilution water were placed into a stomacher bag. The tomatoes were massaged for 60 seconds. […] on TGE (Salmonella). Plates were incubated at 35° C. for 48 hours.
# S. aureus [1] = assay: Log reduction of S. aureus by liquid compositions, 30 second contact (Table 5); format: cell-based; conditions: N-source:H2O2:KI 0:300:0 ppm, pH 5, 30 second contact
# From the text: as §2
# S. aureus [2] = assay: Food-preparation hard surface sanitizing comparison, S. aureus (Table 12); format: cell-based; conditions: actives conc. 300 ppm
# From the text: as §1
# Total bacterial flora = assay: Meat carcass treatment, prerigor beef surfaces (Table 7); conditions: active antimicrobial 1000 ppm; carcass treated 30 seconds, drained 10 minutes
# Protocol: Working Example 5 is similar to the previous example in that comparisons are made between the present invention and known commercial compositions for control of microorganisms on food surfaces. In this case, however, comparisons were made for meat carcass treatments.
# Testing was performed on prerigor beef surfaces from a packing house. Total bacterial flora were tested. The carcasses were treated for 30 seconds and drained for 10 minutes. Test samples were isolated and plated for total […].
# [3] = N-source:H2O2:KI 300:0:0 ppm, pH 7, 30 second contact
molecule,measurement,setting,value
CCO [Ethanol],Minimum Concentration (for 10-minute inactivation),Feline parvovirus,"500,000 ppm"
"OO [Formula H2O2, hydrogen peroxide]",Log Reduction E. coli,E. coli ATCC 11229,0.2 log
same,Log Reduction,"E. coli; N-source:H2O2:KI 0:300:0 ppm, pH 5, 30 second contact",0.2 log
same,E. Coli Log Reduction,E. coli,0.2 log
same,Log Reduction,"Z. bailii; N-source:H2O2:KI 0:532:0 ppm, pH 3, 30 second contact",0.1 log
same,Log Reduction,"Z. bailii; N-source:H2O2:KI 0:532:0 ppm, pH 5, 30 second contact",0.1 log
same,Log Reduction,"Z. bailii; N-source:H2O2:KI 0:532:0 ppm, pH 7, 30 second contact",0.1 log
same,Log Reduction,"P. expansum; N-source:H2O2:KI 0:532:0 ppm, pH 5, 15 minute contact",0.0* log
same,Log Reduction,S. javiana; active antimicrobial 80 ppm,<0.1 log
same,Log Reduction,S. aureus [1],0.4 log
same,Log Reduction S. aureus,S. aureus [2],0.4 log
O=CCCCC=O [Glutaraldehyde],Outcome noted in parentheses at the listed concentration,Feline parvovirus; 10-minute inactivation,2-log
same,Minimum Concentration (for 10-minute inactivation),Feline parvovirus; unit not given,"10,000"
CC(C)O [IPA],Minimum Concentration (for 10-minute inactivation),Feline parvovirus,"500,000 ppm"
"[I-].[K+] [KI, potassium iodide]",E. Coli Log Reduction,E. coli,0 log
same,Log Reduction,"P. expansum; N-source:H2O2:KI 0:0:500 ppm, pH 5, 15 minute contact",0.0* log
CCCCCCCCCCCCCCCC[n+]1ccccc1 [cetyl pyridinium chloride],Log Reduction,Total bacterial flora,0.5 log
C[N+](C)(C)CCO.[Cl-] [choline chloride],Log Reduction,E. coli; [3],0.0 log
same,E. Coli Log Reduction,E. coli,0 log
same,Log Reduction,Z. bailii; [3],0.0 log
CCCCCCCCCC[N+](C)(C)CCCCCCCCCC.[Cl-] [didecyl dimethyl ammonium chloride],Log Reduction,"Z. bailii; N-source:H2O2:KI 20:0:0 ppm, pH 3, 30 second contact",0.1 log
same,Log Reduction,"P. expansum; N-source:H2O2:KI 100:0:0 ppm, pH 7, 15 minute contact",1.0* log
Oc1ccccc1-c1ccccc1 [o-phenylphenol G],Minimum Concentration (for 10-minute inactivation),Feline parvovirus,"100,000 ppm"
CC(=O)OO [peracetic acid],Log Reduction,S. javiana; active antimicrobial 80 ppm,2.8 log
OCl [sodium hypochlorite],Minimum Concentration (for 10-minute inactivation),Feline parvovirus,"2,000 ppm"
same,Log Reduction,S. javiana; active antimicrobial 30 ppm,0.3 log
same,Log Reduction,S. javiana; active antimicrobial 80 ppm,1.9 log
lecithin,E. Coli Log Reduction,E. coli,0 log
